Data set [1] has as its system P815. In words: Cytotoxicity in mouse P815 cells expressing KIT D814Y mutant assessed as reduction in cell viability incubated for 48 hrs by MTT assay. The conditions noted are these: P815, 48 h. Type of data set: functional, cell-based. (In general: Tetrazolium dyes change colour on reduction, which living cells bring about.)
Data set [2] deals with Platelet-derived growth factor receptor beta (Homo sapiens, UniProt P09619). The data set is described as follows: Binding affinity to PDGFRbeta (unknown origin).
Sequence of Platelet-derived growth factor receptor beta (P09619 whole entry): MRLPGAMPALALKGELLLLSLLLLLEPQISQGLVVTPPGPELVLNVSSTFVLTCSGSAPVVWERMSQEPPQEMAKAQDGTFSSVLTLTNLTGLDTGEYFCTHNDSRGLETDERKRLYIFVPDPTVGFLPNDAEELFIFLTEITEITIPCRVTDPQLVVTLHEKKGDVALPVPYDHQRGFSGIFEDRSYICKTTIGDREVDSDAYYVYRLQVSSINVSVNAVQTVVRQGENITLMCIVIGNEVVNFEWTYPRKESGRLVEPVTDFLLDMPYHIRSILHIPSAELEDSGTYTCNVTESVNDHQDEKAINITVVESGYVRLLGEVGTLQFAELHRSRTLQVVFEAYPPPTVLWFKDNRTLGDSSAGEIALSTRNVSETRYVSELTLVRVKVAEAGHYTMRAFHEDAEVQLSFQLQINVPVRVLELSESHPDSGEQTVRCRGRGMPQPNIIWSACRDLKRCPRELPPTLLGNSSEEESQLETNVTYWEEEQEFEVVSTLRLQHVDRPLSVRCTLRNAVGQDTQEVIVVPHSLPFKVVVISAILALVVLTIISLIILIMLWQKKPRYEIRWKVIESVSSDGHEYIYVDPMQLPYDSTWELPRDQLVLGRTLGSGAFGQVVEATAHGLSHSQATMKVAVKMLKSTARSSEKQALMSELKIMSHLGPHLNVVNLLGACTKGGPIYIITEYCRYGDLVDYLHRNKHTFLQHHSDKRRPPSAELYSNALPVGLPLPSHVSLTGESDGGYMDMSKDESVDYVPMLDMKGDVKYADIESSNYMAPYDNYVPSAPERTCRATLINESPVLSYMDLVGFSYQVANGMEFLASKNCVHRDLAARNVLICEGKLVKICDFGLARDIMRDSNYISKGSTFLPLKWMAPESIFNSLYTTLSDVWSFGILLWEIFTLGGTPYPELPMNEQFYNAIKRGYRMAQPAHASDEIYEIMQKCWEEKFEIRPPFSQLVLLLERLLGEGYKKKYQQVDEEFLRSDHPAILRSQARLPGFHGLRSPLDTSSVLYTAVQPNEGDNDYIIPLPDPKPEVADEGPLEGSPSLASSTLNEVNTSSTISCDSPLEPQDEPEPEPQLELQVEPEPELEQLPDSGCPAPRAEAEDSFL
The subject of data set [3] is Mast/stem cell growth factor receptor Kit (Mus musculus), P05532 [D814Y]. In words: Inhibition of KIT D814Y mutant in mouse P815 cells assessed as reduction in STAT3 Tyr705 phosphorylation at 500 nM to 5 uM by Western blot method. The format is cell-based. For orientation: In western blotting, separated proteins are transferred to a membrane and probed.
Data set [4] concerns P815. The data set is described as follows: Toxicity in mouse P815 cells expressing KIT D814Y mutant assessed as reduction in total STAT3 protein level at 5 uM by Western blot method. The format is cell-based. The following applies: p815, 5 µM.
The test system of data set [5] is P815. In words: Induction of apoptosis in mouse P815 cells expressing KIT D814Y mutant assessed as reduction in pro-caspase-3 protein level at 500 nM to 5 uM by Western blot method. Type of data set: functional, cell-based.
The test system of data set [6] is Mus musculus. The data set is described as follows: Toxicity in C57BL/6 mouse assessed as body weight loss at 75 mg/kg, ip for 17 days. The format is organism-based. The following applies: in vivo, 408 h.
Data set [7] concerns Mus musculus. The data set is described as follows: Toxicity in C57BL/6 mouse assessed as induction of mouse mortality at 400 mg/kg, ip for 17 days measured on day 0. The format is organism-based. The following applies: in vivo, 408 h.
Data set [8] concerns Mus musculus. The data set is described as follows: In-vivo suppression of PDGFR signalling in C57BL/6 mouse assessed as retardation of hair re-growth at 75 mg/kg, ip administered once daily for 17 days by photography. Type of data set: functional, organism-based.
Data set [9] deals with Mus musculus. The data set is described as follows: In-vivo suppression of KIT signalling in C57BL/6 mouse assessed as hair depigmentation at 75 mg/kg, ip administered once daily for 17 days by photography. The format is functional, organism-based.

Molecules are shown by their SMILES. Active and inactive are the calls of the source. The rule behind the calls is not given here.

Sequence of Mast/stem cell growth factor receptor Kit (Mus musculus), P05532 [D814Y] (P05532 with tags, fused parts or gaps D814Y): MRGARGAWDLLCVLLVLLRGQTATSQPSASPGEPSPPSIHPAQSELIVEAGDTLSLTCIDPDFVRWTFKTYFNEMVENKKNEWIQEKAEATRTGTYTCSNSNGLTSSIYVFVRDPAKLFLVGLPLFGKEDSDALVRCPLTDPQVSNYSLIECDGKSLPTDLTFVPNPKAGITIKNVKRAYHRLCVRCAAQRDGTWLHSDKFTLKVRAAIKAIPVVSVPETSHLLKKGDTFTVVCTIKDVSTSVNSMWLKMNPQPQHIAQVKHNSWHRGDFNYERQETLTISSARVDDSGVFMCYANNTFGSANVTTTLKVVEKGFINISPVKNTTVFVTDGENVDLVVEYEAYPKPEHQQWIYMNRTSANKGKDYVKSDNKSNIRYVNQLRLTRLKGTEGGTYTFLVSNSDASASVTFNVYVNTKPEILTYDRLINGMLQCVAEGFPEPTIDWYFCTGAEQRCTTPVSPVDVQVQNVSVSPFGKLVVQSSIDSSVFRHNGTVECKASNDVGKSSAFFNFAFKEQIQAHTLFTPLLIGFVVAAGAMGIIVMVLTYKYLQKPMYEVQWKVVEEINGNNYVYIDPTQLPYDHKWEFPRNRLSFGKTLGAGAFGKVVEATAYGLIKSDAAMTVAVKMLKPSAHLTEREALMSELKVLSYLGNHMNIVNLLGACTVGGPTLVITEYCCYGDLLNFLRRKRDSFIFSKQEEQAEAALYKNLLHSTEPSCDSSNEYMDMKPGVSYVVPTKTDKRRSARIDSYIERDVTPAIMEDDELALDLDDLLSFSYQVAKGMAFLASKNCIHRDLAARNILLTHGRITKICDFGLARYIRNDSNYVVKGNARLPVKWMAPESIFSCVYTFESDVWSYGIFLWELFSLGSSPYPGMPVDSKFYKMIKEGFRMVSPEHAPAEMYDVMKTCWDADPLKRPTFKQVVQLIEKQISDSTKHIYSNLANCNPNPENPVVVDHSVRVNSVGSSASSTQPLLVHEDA

Regarding `COc1cc2c(N3CCN(C(=O)Nc4ccc(OC(C)C)cc4)CC3)ncnc2cc1OCCCN1CCCCC1` [TANDUTINIB], in the data set with P815 [1], the IC50 came out at 600 nM.
Take `COCCOc1cc2ncnc(N3CCN(c4ncc(Cc5ccccc5)cn4)CC3)c2cc1OCCOC`: the Kd in data set [2] turned out to be 8 nM. In the data set on P815 [1], the IC50 amounted to 182 nM. For the same compound, the inhibition entry in data set [3] was “Active”. Besides, the Activity entry is “Toxic” in the data set with P815 [4], “Dose-dependent effect” with P815 [5], 10% with Mus musculus [6] and “Toxic” with Mus musculus [7]. Also, the result in the data set on Mus musculus [8] was Active. Also, in the data set with Mus musculus [9], the result was inactive.

A word on the IC50: it is the midpoint of a concentration-inhibition curve. The Kd is the equilibrium constant for the complex coming apart. Read a high Kd as weaker binding.

The values above are taken from ChEMBL document CHEMBL4190380, “Preliminary in vitro and in vivo investigation of a potent platelet derived growth factor receptor (PDGFR) family kinase inhibitor” (Bioorg Med Chem Lett, 2018).
